# Measurements: the supplement of paper PMC10307832
# Legend:
# Assay in all cases: relative viability (nuclei count vs DMSO), 5 days (fraction); higher = more cells survive
# SK-MES-1 = tested on: SK-MES-1
# Outline: (§1)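 Lung cancer cell lines in 1536-well plates were dosed by pin tool the day after seeding, either with one drug alone or with a fixed anchor-drug dose plus five library-drug doses (not always all listed) in √10 steps. After 5 days, cells were fixed and their nuclei stained in one step (final 0.05% Triton X-100, 1% formaldehyde, 1 ug/ml Hoechst), then counted on 4× images. Relative viability is the nuclei count in treated wells divided by that in vehicle wells. Values are medians of duplicate plates.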
# NCI-H3122 = tested on: NCI-H3122
# Outline: as §1
# HCC-78 = tested on: HCC-78
# Outline: as §1
# NCI-H596 = tested on: NCI-H596
# Outline: as §1
# NCI-H2085 = tested on: NCI-H2085
# Outline: as §1
# RERF-LC-KJ = tested on: RERF-LC-KJ
# Outline: as §1
# NCI-H838 = tested on: NCI-H838
# Outline: as §1
# PC-14 = tested on: PC-14
# Outline: as §1
# NCI-H1993 = tested on: NCI-H1993
# Outline: as §1
# NCI-H2228 = tested on: NCI-H2228
# Outline: as §1
# LC-2-ad = tested on: LC-2-ad
# Outline: as §1
# SW 1573 = tested on: SW 1573
# Outline: as §1
# NCI-H2347 = tested on: NCI-H2347
# Outline: as §1
# NCI-H2405 = tested on: NCI-H2405
# Outline: as §1
# HCC-366 = tested on: HCC-366
# Outline: as §1
# LK-2 = tested on: LK-2
# Outline: as §1
# EMC-BAC-2 = tested on: EMC-BAC-2
# Outline: as §1
# NCI-H1355 = tested on: NCI-H1355
# Outline: as §1
# HOP-62 = tested on: HOP-62
# Outline: as §1
# CAL-12T = tested on: CAL-12T
# Outline: as §1
# NCI-H1734 = tested on: NCI-H1734
# Outline: as §1
# ChaGo-K-1 = tested on: ChaGo-K-1
# Outline: as §1
# NCI-H2009 = tested on: NCI-H2009
# Outline: as §1
smiles,measurement,setting,value
O=c1[nH]c2ccccc2n1C1CCN(CCCC(c2ccc(F)cc2)c2ccc(F)cc2)CC1 [Pimozide] + Cc1cc(Nc2cc(N3CCN(C)CC3)nc(Sc3ccc(NC(=O)C4CC4)cc3)n2)n[nH]1 [Tozasertib] (partner 0.1 µM),relative viability,SK-MES-1; first compound 0.08 µM,0.821
same,relative viability,SK-MES-1; first compound 0.253 µM,0.822
same,relative viability,SK-MES-1; first compound 0.8 µM,0.873
same,relative viability,SK-MES-1; first compound 2.53 µM,0.824
same,relative viability,SK-MES-1; first compound 8 µM,0.815
same,relative viability,NCI-H3122; first compound 0.08 µM,0.397
same,relative viability,NCI-H3122; first compound 0.253 µM,0.386
same,relative viability,NCI-H3122; first compound 0.8 µM,0.353
same,relative viability,NCI-H3122; first compound 2.53 µM,0.216
same,relative viability,NCI-H3122; first compound 8 µM,0.378
same,relative viability,HCC-78; first compound 0.08 µM,0.336
same,relative viability,HCC-78; first compound 0.8 µM,0.319
same,relative viability,HCC-78; first compound 2.53 µM,0.371
same,relative viability,HCC-78; first compound 8 µM,0.327
same,relative viability,NCI-H596; first compound 0.08 µM,0.929
same,relative viability,NCI-H596; first compound 0.253 µM,0.959
same,relative viability,NCI-H596; first compound 0.8 µM,0.893
same,relative viability,NCI-H596; first compound 2.53 µM,0.839
same,relative viability,NCI-H596; first compound 8 µM,0.882
same,relative viability,NCI-H2085; first compound 0.08 µM,0.793
same,relative viability,NCI-H2085; first compound 0.253 µM,0.82
same,relative viability,NCI-H2085; first compound 0.8 µM,0.704
same,relative viability,NCI-H2085; first compound 2.53 µM,0.844
same,relative viability,NCI-H2085; first compound 8 µM,0.736
same,relative viability,RERF-LC-KJ; first compound 0.08 µM,0.468
same,relative viability,RERF-LC-KJ; first compound 0.253 µM,0.447
same,relative viability,RERF-LC-KJ; first compound 0.8 µM,0.452
same,relative viability,RERF-LC-KJ; first compound 2.53 µM,0.202
same,relative viability,RERF-LC-KJ; first compound 8 µM,0.248
same,relative viability,NCI-H838; first compound 0.08 µM,0.271
same,relative viability,NCI-H838; first compound 0.253 µM,0.287
same,relative viability,NCI-H838; first compound 0.8 µM,0.31
same,relative viability,NCI-H838; first compound 2.53 µM,0.276
same,relative viability,NCI-H838; first compound 8 µM,0.323
same,relative viability,PC-14; first compound 0.253 µM,0.539
same,relative viability,PC-14; first compound 0.8 µM,0.481
same,relative viability,PC-14; first compound 2.53 µM,0.519
same,relative viability,PC-14; first compound 8 µM,0.552
same,relative viability,NCI-H1993; first compound 0.08 µM,0.555
same,relative viability,NCI-H1993; first compound 0.253 µM,0.567
same,relative viability,NCI-H1993; first compound 0.8 µM,0.612
same,relative viability,NCI-H1993; first compound 2.53 µM,0.568
same,relative viability,NCI-H1993; first compound 8 µM,0.58
same,relative viability,NCI-H2228; first compound 0.08 µM,0.263
same,relative viability,NCI-H2228; first compound 0.253 µM,0.262
same,relative viability,NCI-H2228; first compound 0.8 µM,0.308
same,relative viability,NCI-H2228; first compound 2.53 µM,0.172
same,relative viability,NCI-H2228; first compound 8 µM,0.148
same,relative viability,LC-2-ad; first compound 0.08 µM,0.442
same,relative viability,LC-2-ad; first compound 0.253 µM,0.455
same,relative viability,LC-2-ad; first compound 0.8 µM,0.416
same,relative viability,LC-2-ad; first compound 2.53 µM,0.385
same,relative viability,LC-2-ad; first compound 8 µM,0.35
same,relative viability,SW 1573; first compound 0.08 µM,0.132
same,relative viability,SW 1573; first compound 0.253 µM,0.273
same,relative viability,SW 1573; first compound 0.8 µM,0.133
same,relative viability,SW 1573; first compound 2.53 µM,0.194
same,relative viability,SW 1573; first compound 8 µM,0.174
same,relative viability,NCI-H2347; first compound 0.253 µM,0.582
same,relative viability,NCI-H2347; first compound 0.8 µM,0.531
same,relative viability,NCI-H2347; first compound 2.53 µM,0.563
same,relative viability,NCI-H2347; first compound 8 µM,0.578
same,relative viability,NCI-H2405; first compound 0.08 µM,0.754
same,relative viability,NCI-H2405; first compound 0.253 µM,0.712
same,relative viability,NCI-H2405; first compound 0.8 µM,0.683
same,relative viability,NCI-H2405; first compound 2.53 µM,0.673
same,relative viability,NCI-H2405; first compound 8 µM,0.575
same,relative viability,HCC-366; first compound 0.08 µM,0.079
same,relative viability,HCC-366; first compound 0.253 µM,0.0803
same,relative viability,HCC-366; first compound 0.8 µM,0.142
same,relative viability,HCC-366; first compound 2.53 µM,0.0868
same,relative viability,HCC-366; first compound 8 µM,0.0997
same,relative viability,LK-2; first compound 0.08 µM,0.173
same,relative viability,LK-2; first compound 0.253 µM,0.178
same,relative viability,LK-2; first compound 2.53 µM,0.167
same,relative viability,LK-2; first compound 8 µM,0.171
same,relative viability,EMC-BAC-2; first compound 0.08 µM,0.292
same,relative viability,EMC-BAC-2; first compound 0.253 µM,0.284
same,relative viability,EMC-BAC-2; first compound 0.8 µM,0.272
same,relative viability,EMC-BAC-2; first compound 2.53 µM,0.225
same,relative viability,EMC-BAC-2; first compound 8 µM,0.297
same,relative viability,NCI-H1355; first compound 0.08 µM,0.569
same,relative viability,NCI-H1355; first compound 0.253 µM,0.534
same,relative viability,NCI-H1355; first compound 0.8 µM,0.462
same,relative viability,NCI-H1355; first compound 2.53 µM,0.376
same,relative viability,NCI-H1355; first compound 8 µM,0.414
same,relative viability,HOP-62; first compound 0.08 µM,0.344
same,relative viability,HOP-62; first compound 0.253 µM,0.353
same,relative viability,HOP-62; first compound 2.53 µM,0.331
same,relative viability,HOP-62; first compound 8 µM,0.321
same,relative viability,CAL-12T; first compound 0.08 µM,0.308
same,relative viability,CAL-12T; first compound 0.253 µM,0.312
same,relative viability,CAL-12T; first compound 0.8 µM,0.308
same,relative viability,CAL-12T; first compound 2.53 µM,0.318
same,relative viability,CAL-12T; first compound 8 µM,0.427
same,relative viability,NCI-H1734; first compound 0.08 µM,0.277
same,relative viability,NCI-H1734; first compound 0.253 µM,0.289
same,relative viability,NCI-H1734; first compound 2.53 µM,0.255
same,relative viability,NCI-H1734; first compound 8 µM,0.271
same,relative viability,ChaGo-K-1; first compound 0.08 µM,0.22
same,relative viability,ChaGo-K-1; first compound 0.253 µM,0.235
same,relative viability,ChaGo-K-1; first compound 0.8 µM,0.24
same,relative viability,ChaGo-K-1; first compound 2.53 µM,0.212
same,relative viability,ChaGo-K-1; first compound 8 µM,0.211
same,relative viability,NCI-H2009; first compound 0.08 µM,0.696
same,relative viability,NCI-H2009; first compound 0.253 µM,0.754
same,relative viability,NCI-H2009; first compound 0.8 µM,0.683
same,relative viability,NCI-H2009; first compound 2.53 µM,0.58
same,relative viability,NCI-H2009; first compound 8 µM,0.577
